What was measured:
[1] = In vitro DOX release study (dialysis); type: physicochemical; settings: 96 hours, either pH
Method: An in vitro DOX release study was also performed wherein D-LMNs, M-LMNs, and free DOX were each dispersed in 1 ml PBS buffer containing 1% Tween 20 (pH 7.3 or pH 5.1) and placed in a dialysis membrane (MWCO of 12000-14000 Da), The bag was then immersed in a tube containing 10 mL of the same PBS buffer ([…] or pH 5.1) and incubated at 37° C. At specific time intervals the DOX content in the PBS was analyzed using the UV-VIS spectrophotometer at 485 nm. Samples were all done in triplicate. M-LMNs were used as a blank. The release of the encapsulated DOX from D-LMNs was determined at pH 7.3, which is the physiological pH, and at pH 5.1, which represents the acidic pH inside endosomes, lysosomes, and solid tumors. One percent Tween 20 was used because it forms hydrophobic pockets, which can stabilize the released DOX from the D-LMNs, and helps to avoid aggregation of the hydrophobic DOX in the aqueous environment.

HEK293 cells = settings: cells incubated with free DOX, literature; cited from earlier work

SMILES: COc1cccc2c1C(=O)c1c(O)c3c(c(O)c1C2=O)C[C@@](O)(C(=O)CO)C[C@@H]3O[C@H]1C[C@H](N)[C@H](O)[C@H](C)O1.Cl [free DOX, doxorubicin hydrochloride]
- DOX released [1]: more than 90%
- location of DOX in cells (HEK293 cells): found in the nuclei intercalated with DNA

Source: US20130243867A1, “MICELLE COMPOSITIONS AND METHODS FOR THEIR USE” (University of South Florida (A Florida Non-Profit …, priority 2012, published 2013)
